Patent US9162992B2, “Compounds and compositions for treatment of breathing control disorders or diseases” (GALLEON PHARMACEUTICALS, INC., priority 2010, dated 2015)

What was measured:
[1] = Stability as a function of buffer strength (1 mg/mL, citrate pH 3.0); format: physicochemical; design: Assay: unit not given here; settings: for Impurities: unit assumed
Procedure: A 10 mg/mL (XXXVI) solution in 100 mM citrate buffer at pH 3.0 and a 500 mM citrate buffer at pH 3.0 were prepared. Using these two stock solutions, (XXXVI) solutions at 1 mg/mL were prepared in citrate buffers of various concentrations in the range 10-250 mM, as shown in Table 12E.
Each of the above solutions was stored in 5 mL serum vials as ca. 2.5-3 mL aliquots (total of 7 aliquots). Two aliquots were stored at each of 40° C., 60° C. and 25° C. Aliquots stored at 25° C. served as controls to be evaluated if necessary. […]

[2] = test system: midazolam-induced respiratory depression; experiment: Benzodiazepine-induced respiratory depression (BIRD), midazolam, rat plethysmography; format: in vivo
Procedure: Compound (XXXVI) was dissolved in 20% hydroxypropyl-beta-cyclodextran in sterile water, and titrated to a pH of 4-8 using pH paper and NaOH or HCl, resulting in a clear, stable solution at a concentration of 1.5 mg/mL. Other compounds: morphine sulfate, supplied as 10 mg/mL solution by (Baxter, Inc) and midazolam, supplied as 5 mg/mL solution (Hospira, Inc.)
Male Sprague-Dawley rats (Harlan, Inc.), 250-350 g at time of dosing, surgically prepared by Harlan with jugular vein cannulas. 12 Chamber Plethysmography System with temperature/humidity compensation (Epstein et al., 1980, J. Apply Physiol. 49:1107-1115); From Buxco, Inc. (PLY 3223; Buxco, Inc, Wilmington, N.C., USA) Biosystem XA, software, v2.11.1. Customized 12 site automated infusion system (Harvard Apparatus; Instech, Inc)
Rat whole body plethysmography was used to evaluate and quantify minute ventilation and the pattern of breathing. A respiratory waveform was generated from the exchange of air between the animal and the chamber. This exchange induced changes in air volume that were measured with a pressure transducer, constituting the respiratory waveform. Atmospheric temperature and humidity were also measured using temperature and humidity probes which sampled chamber conditions. A compensation factor was then determined and applied to the respiratory waveform using a standardized algorithm (Epstein et al., 1980, J. Apply Physiol. 49:1107-1115) to compensate for respiratory conditioning, which was reported as the parameter COMP (see appendix).
All animals were acclimated to plethysmography chambers for at least 1 hour, or until animals were no longer restless (up to 2 hours) prior to data collection. Bolus intravenous (IV) dosing was administered at a rate of 5-10 seconds per dose, and catheters were flushed with 350 μL of sterile saline to be sure of complete drug delivery. […] All plethysmography data was recorded automatically by the Buxco equipment.
Respiratory data were collected on a breath-by-breath basis and averaged into 1 min time bins for data analysis. For each designated acquisition phase, which is the time between doses, percent change from pre-treatment baseline values were calculated for each cohort on multiple ventilatory parameters including respiratory frequency (f), tidal volume (TV), accumulated volume (AV), minute ventilation (MV), inspiratory time (Ti), expiratory time (Te), peak inspiratory flow (PIF), peak expiratory flow (PEF), relaxation time (RT), end inspiratory pause (EIP), end expiratory pause (EEP), delta volume (DV), expiratory flow at 50% TV (EF50), rejection index (Rinx), compensation (Comp), enhanced pause (Penh), pause (PAU), PEF rate (Rpef), relative humidity (RH), and atmospheric temperature (Temp). […]

CCCNc1nc(NCCC)nc(N(C)OC)n1 [XXXV, N-(4,6-Bis-n-propylamino-[1,3,5]triazin-2-yl)-N,O-dimethyl-hydroxylamine]
Assay ([1]; 10 mM, 40° C. 1 wk): 0.953
pH ([1]; 10 mM, 40° C. 1 wk): 3.26
Assay ([1]; 10 mM, 40° C. 2 wk): 0.947
pH ([1]; 10 mM, 40° C. 2 wk): 3.21
Assay ([1]; 10 mM, 60° C. 1 wk): 0.953
pH ([1]; 10 mM, 60° C. 1 wk): 3.3
Impurities ([1]; 10 mM, 60° C. 1 wk): 0.48%
Assay ([1]; 10 mM, 60° C. 2 wk): 0.956
pH ([1]; 10 mM, 60° C. 2 wk): 3.2
Impurities ([1]; 10 mM, 60° C. 2 wk): 0.89%
Assay ([1]; 10 mM, initial): 0.971
pH ([1]; 10 mM, initial): 3.16
Assay ([1]; 20 mM, 40° C. 1 wk): 0.965
pH ([1]; 20 mM, 40° C. 1 wk): 3.33
Impurities ([1]; 20 mM, 40° C. 1 wk): 0.13%
Assay ([1]; 20 mM, 40° C. 2 wk): 0.966
pH ([1]; 20 mM, 40° C. 2 wk): 3.30
Assay ([1]; 20 mM, 60° C. 1 wk): 0.943
pH ([1]; 20 mM, 60° C. 1 wk): 3.3
Impurities ([1]; 20 mM, 60° C. 1 wk): 0.58%
Assay ([1]; 20 mM, 60° C. 2 wk): 0.947
pH ([1]; 20 mM, 60° C. 2 wk): 3.3
Impurities ([1]; 20 mM, 60° C. 2 wk): 0.88%
Assay ([1]; 20 mM, initial): 1.01
pH ([1]; 20 mM, initial): 3.27
Assay ([1]; 50 mM, 40° C. 1 wk): 0.959
pH ([1]; 50 mM, 40° C. 1 wk): 3.34
Assay ([1]; 50 mM, 40° C. 2 wk): 0.949
pH ([1]; 50 mM, 40° C. 2 wk): 3.29
Assay ([1]; 50 mM, 60° C. 1 wk): 0.936
pH ([1]; 50 mM, 60° C. 1 wk): 3.3
Impurities ([1]; 50 mM, 60° C. 1 wk): 0.59%
Assay ([1]; 50 mM, 60° C. 2 wk): 0.943
pH ([1]; 50 mM, 60° C. 2 wk): 3.3
Impurities ([1]; 50 mM, 60° C. 2 wk): 0.87%
Assay ([1]; 50 mM, initial): 0.976
pH ([1]; 50 mM, initial): 3.28
Assay ([1]; 100 mM, 40° C. 1 wk): 0.964
pH ([1]; 100 mM, 40° C. 1 wk): 3.32
Impurities ([1]; 100 mM, 40° C. 1 wk): 0.26%
Assay ([1]; 100 mM, 40° C. 2 wk): 0.956
pH ([1]; 100 mM, 40° C. 2 wk): 3.29
Impurities ([1]; 100 mM, 40° C. 2 wk): 0.38%
Assay ([1]; 100 mM, 60° C. 1 wk): 0.962
pH ([1]; 100 mM, 60° C. 1 wk): 3.3
Impurities ([1]; 100 mM, 60° C. 1 wk): 0.73%
Assay ([1]; 100 mM, 60° C. 2 wk): 0.946
pH ([1]; 100 mM, 60° C. 2 wk): 3.2
Impurities ([1]; 100 mM, 60° C. 2 wk): 1.2%
Assay ([1]; 100 mM, initial): 0.962
pH ([1]; 100 mM, initial): 3.30
Assay ([1]; 250 mM, 40° C. 1 wk): 0.972
pH ([1]; 250 mM, 40° C. 1 wk): 3.25
Impurities ([1]; 250 mM, 40° C. 1 wk): 0.21%
Assay ([1]; 250 mM, 40° C. 2 wk): 0.945
pH ([1]; 250 mM, 40° C. 2 wk): 3.22
Impurities ([1]; 250 mM, 40° C. 2 wk): 0.56%
Assay ([1]; 250 mM, 60° C. 1 wk): 0.955
pH ([1]; 250 mM, 60° C. 1 wk): 3.2
Impurities ([1]; 250 mM, 60° C. 1 wk): 1.03%
Assay ([1]; 250 mM, 60° C. 2 wk): 0.936
pH ([1]; 250 mM, 60° C. 2 wk): 3.2
Impurities ([1]; 250 mM, 60° C. 2 wk): 1.8%
Assay ([1]; 250 mM, initial): 0.947
pH ([1]; 250 mM, initial): 3.21
effect of buffer strength on impurity levels ([1]; 40° C., buffer concentration relevant to the formulation (ca. 10-50 mM)): no effect of buffer strength at 40 °C

CCCNc1nc(NCCC)nc(N(C)OC)n1.O=S(=O)(O)O [XXXVI, N-(4,6-Bis-n-propylamino-[1,3,5]triazin-2-yl)-N,O-dimethyl-hydroxylamine hydrogen sulfate]
effect on f, Ti, RT, EIP, dv, EF50, Rinx, Comp, Penh, PAU, Rpef, RH and Temp ([2]; 0.1 mg/kg/min infusion 30 min): had no obvious effect
effects of midazolam on MV, TV, AV, Te, PIF, PEF and EEP ([2]; 0.1 mg/kg/min infusion 30 min): had an effect to reverse the effects of midazolam
reversal of the BIRD induced decrease in MV ([2]; 0.1 mg/kg/min infusion, end of infusion period (t=38)): 100
adverse behavioral effects ([2]; rats, doses tested): no adverse behavioral effects observed
